# Where a name gives a salt, the structure may show the parent alone. Read-outs that look alike come from different tables or passages of the source.
# Legend:
# [1] = cited from earlier work
# physchem = conditions: water
structure (smiles),measurement,setting,value
COc1cccc(C2(O)CCCCC2CN(C)C)c1 (stereo not drawn) [tramadol hydrochloride],Volume of water to dissolve dose,,1.3 mL
same,volume needed for total dissolution of the dose,,around 1 mL
same,solubility in water,[1],around 30 mg/mL
same,solubility,physchem,30 mg/mL
CN1CCC[C@@H]1Cc1c[nH]c2ccc(CCS(=O)(=O)c3ccccc3)cc12 [Eletriptan hydrobromide],Volume of water to dissolve dose,dose as in the Dose (mg) column,4 mL
CC(=O)Nc1ccc(O)cc1 [paracetamol],volume needed for total dissolution of the dose,"weight for weight basis, dose in the paracetamol/tramadol hydrochloride tablet",around 27 mL

# From US20130065885A1, “ORAL THERAPEUTIC COMPOUND DELIVERY SYSTEM” (IMAGINOT PTY LTD., priority 2004, published 2013)
